Patent US6413974B1, “6,9,-disubstituted 2-[trans-(4-aminocyclohexyl) amino] purines” (Aventis Pharmaceuticals Inc., priority 1998, dated 2002)
pIC50: −log10 of the molar value. Values joined by “and” are separate entries in the source; they are usually repeats but may differ in a detail not shown here. Identical values can stand only once. Counter-ions that a name gives are not always drawn. Like-named read-outs stand apart in the source and are kept apart here.

How the values were obtained:
cdk2/cyclin E = target: T1, cdk2/cyclin E (Homo sapiens, UniProt P24941); assay: Cyclin-Dependent Kinase 2 Assay (cdk-2 inhibition); format: biochemical; conditions: GST-Rb substrate, 30 min at 30° C.
T1 construct: made in house; host or cells: insect cells (baculovirus co-infection)
In short: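 GST-Rb bound to glutathione-Sepharose beads (0.5 μg/well) as substrate in 50 mM HEPES pH 7.5, 10 mM MgCl2, 1 mM EGTA. Recombinant cdk2/cyclin E at 0.1 μg per 100 μl, 30 min at 30 °C. Reaction stopped by filtration, TNEN washes, scintillation counting.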

cdk4/cyclin D1 = target: T2, cdk4/cyclin D1 (Homo sapiens, UniProt P11802); assay: Cyclin-dependent kinase 4 Assay; format: biochemical; conditions: cdk4/cyclin D1, GST-Rb substrate, 10 μM ATP, 30 min at 37° C.; read-out: CDK4 Inhibition IC50
T2 construct: made in house; host or cells: Sf9 insect cells (Bac-to-Bac baculovirus, pFastBac)
T2 sequence (P11802 whole entry): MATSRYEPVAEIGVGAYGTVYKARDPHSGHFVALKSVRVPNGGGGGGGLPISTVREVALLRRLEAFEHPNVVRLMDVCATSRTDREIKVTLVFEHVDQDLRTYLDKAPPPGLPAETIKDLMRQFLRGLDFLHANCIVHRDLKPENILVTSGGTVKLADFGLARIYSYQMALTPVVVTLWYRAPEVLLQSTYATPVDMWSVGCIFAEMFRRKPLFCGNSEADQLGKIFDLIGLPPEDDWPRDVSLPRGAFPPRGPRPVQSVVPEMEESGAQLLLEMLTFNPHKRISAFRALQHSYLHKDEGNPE
T2 sequence (P24385 whole entry partner): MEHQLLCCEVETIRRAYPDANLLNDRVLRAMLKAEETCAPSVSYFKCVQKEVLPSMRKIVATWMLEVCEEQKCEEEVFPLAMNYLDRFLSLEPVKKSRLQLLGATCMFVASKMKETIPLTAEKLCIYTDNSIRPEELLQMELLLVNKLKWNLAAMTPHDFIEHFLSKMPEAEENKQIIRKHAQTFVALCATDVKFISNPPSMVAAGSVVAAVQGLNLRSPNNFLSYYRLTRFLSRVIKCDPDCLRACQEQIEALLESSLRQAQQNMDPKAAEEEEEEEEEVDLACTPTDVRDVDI
In short: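 Insect-cell lysate of coexpressed human cdk4/cyclin D1 (0.1 μg) phosphorylated bead-bound GST-Rb (0.5 μg) in 50 mM HEPES pH 7.5, 10 mM MgCl2, 1 mM EGTA for 30 min at 37 °C. Filters were washed with TNEN and scintillation-counted; IC50 values derived.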

MDA-MB-231 = assay: In vitro tumor cell proliferation, MDA-MB-231; format: cell-based, human; conditions: read-out: In vitro Tumor Cell Proliferation (IC50, μM) Breast MDA-MB-231
In short: (§1)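 SRB read-out: 3-day drug exposure, medium and drug renewed, 4 further days, TCA fixation at 4° C, 0.4% SRB stain. CyQUANT alternative: 3-day drug exposure, then plates frozen at −80° C ≥30 min. Cells plated overnight at 37° C before dosing.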

HT-29 = assay: In vitro tumor cell proliferation, HT-29; format: cell-based, human; conditions: read-out: In vitro Tumor Cell Proliferation (IC50, μM) Colon HT-29 (converted)
In short: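 HT-29 human colon adenocarcinoma cells plated overnight at 37° C., then exposed to drug for 3 days, medium with fresh drug replaced for a further 4 days. Cells fixed with 10% TCA and stained with 0.4% sulforhodamine B; alternatively, CyQUANT read after 3 days of drug exposure.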

HCT-15 = assay: In vitro tumor cell proliferation, HCT-15; format: cell-based, human; conditions: read-out: In vitro Tumor Cell Proliferation (IC50, μM) Colon HCT-15
Method: (§2) The proliferation of tumor cells was measured using a sulforhodamine B assay as described in Skehan, P., et al., J. Natl. Cancer Inst. […] Tumor cells were harvested with trypsin-EDTA, cells that excluded trypan blue were counted, added to 96-well plates and incubated overnight at 37° C. Drug was added to the wells following dilution in culture medium. Three days later, the medium was removed and replenished with medium containing fresh drug and incubated an additional 4 days. The cells were then fixed with 0.1 ml 10% trichloroacetic acid for 60 min at 4° C. The plates were rinsed five times with tap water, air-dried and stained for 30 min with 0.4% sulforhodamine B in 1% acetic acid and air-dried.
(§3) Alternatively, the CyQUANT cell proliferation assay was used to quantify tumor cell proliferation. Tumor cells were harvested with trypsin-EDTA, cells that excluded trypan blue were counted, added to 96-well plates and incubated overnight at 37° C. Drug was added to the wells following dilution in culture medium. Three days later the medium was removed and the plates frozen at −80° C. for at least 30 minutes.

A549 = assay: In vitro tumor cell proliferation, A549; format: cell-based, human; conditions: read-out: In vitro Tumor Cell Proliferation (IC50, μM) Lung A549
In short: as §1

DMS-114 = assay: In vitro tumor cell proliferation, DMS-114; format: cell-based, human; conditions: read-out: In vitro Tumor Cell Proliferation (IC50, μM) Lung DMS-114
In short: as §1

DU 145 = assay: In vitro tumor cell proliferation, DU 145; format: cell-based, human; conditions: read-out: In vitro Tumor Cell Proliferation (IC50, μM) Prostate DUI45
In short: as §1

MCF-7 = assay: In vitro tumor cell proliferation, MCF-7; format: cell-based, human; conditions: read-out: In vitro Tumor Cell Proliferation (IC50, μM) Breast MCF-7
Method: as §2, §3
MCF7 is a human breast adenocarcinoma, hormone-dependent (HTB 22);

PC-3 = assay: In vitro tumor cell proliferation, PC-3; format: cell-based, human; conditions: read-out: In vitro Tumor Cell Proliferation (IC50, μM) Prostate PC-3
In short: as §1

[1] = Homo sapiens, MDA-MB-231, values without *
[2] = values without *, dihydrochloride
[3] = Homo sapiens, HT-29, values without *
[4] = Homo sapiens, HCT-15, values without *
[5] = Homo sapiens, A549, values without *
[6] = Homo sapiens, DMS-114, values without *
[7] = Homo sapiens, DU-145, values without *
[8] = Homo sapiens, MCF7, values without *
[9] = Homo sapiens, PC-3, values without *

SMILES	pIC50 (cdk2/cyclin E)	pIC50 (cdk4/cyclin D1)	IC50 (MDA-MB-231; [1]) [µM]	IC50 (MDA-MB-231; [2])	IC50 (HT-29; [3]) [µM]	IC50 (HT-29; [2])	IC50 (HCT-15; [4]) [µM]	IC50 (HCT-15; [2])	IC50 (A549; [5]) [µM]	IC50 (A549; [2])	IC50 (DMS-114; [6]) [µM]	IC50 (DMS-114; [2])	IC50 (DU 145; [7]) [µM]	IC50 (DU 145; [2])	IC50 (MCF-7; [8]) [µM]	IC50 (MCF-7; [2]) [µM]	IC50 (PC-3; [9]) [µM]	IC50 (PC-3; [2])
CC(C)n1cnc2c(NCC3CC3)nc(N[C@H]3CC[C@H](N)CC3)nc21 [Example 32, 2-[Trans-(4-aminocyclohexyl)amino]-6-[(cyclopropyl)methylamino]-9-(2-propyl)purine dihydrochloride]	6.68 and 7.02		16	8.1 µM		11 µM	> 20	24 µM		10 µM			17	10 µM	9.3	5.3	9.7	6.9 µM
N[C@H]1CC[C@H](Nc2nc(NCC3CCCCC3)c3ncn(C4CCCC4)c3n2)CC1 [Example 22, 2-[Trans-(4-aminocyclohexyl)amino]-6-[(cyclohexyl)methylamino]-9-cyclopentylpurine dihydrochloride]	6.28	4.62 and 4.20	8.6		16	12 µM	17	15 µM	8		9		7.5	11 µM				
Cc1cccc(CNc2nc(N[C@H]3CC[C@H](N)CC3)nc3c2ncn3C2CCCC2)c1 [Example 11, 2-[Trans-(4-aminocyclohexyl)amino]-6-[(3-methylbenzyl)amino]-9-cyclopentylpurine dihydrochloride]	6.82	4.96 and 5.13	7.4		8.2	11 µM	11				4.5	7.1 µM	4.8	8 µM			5.8	4.2 µM
N[C@H]1CC[C@H](Nc2nc(NCc3cccc(Cl)c3)c3ncn(C4CCCC4)c3n2)CC1 [Example 29, 2-[Trans-(4-aminocyclohexyl)amino]-6-[(3-chlorobenzyl)amino]-9-cyclopentylpurine dihydrochloride]	7.49	6.28	1.1	1.6 µM	2.4	1.5 µM	3.8	2.9 µM	0.92	1.3 µM	0.52	0.63 µM	0.8	0.92 µM				
N[C@H]1CC[C@H](Nc2nc(NCc3ccc(Cl)cc3)c3ncn(C4CCCC4)c3n2)CC1 [Example 27, 2-[Trans-(4-aminocyclohexyl)amino]-6-[(4-chlorobenzyl)amino]-9-cyclopentylpurine dihydrochloride]	6.36	4.77 and 5.05	7		16			15 µM	8.4	11 µM	9.5	6.8 µM	7.2	11 µM			8.7	

Further lines, results first:

pIC50 (cdk2/cyclin E)	pIC50 (cdk4/cyclin D1)	IC50 (MDA-MB-231; [1]) [µM]	IC50 (MDA-MB-231; [2])	IC50 (HT-29; [3]) [µM]	IC50 (HT-29; [2])	IC50 (HCT-15; [4]) [µM]	IC50 (HCT-15; [2])	IC50 (A549; [5]) [µM]	IC50 (A549; [2])	IC50 (DMS-114; [6]) [µM]	IC50 (DMS-114; [2])	IC50 (DU 145; [7]) [µM]	IC50 (DU 145; [2])	IC50 (MCF-7; [8]) [µM]	IC50 (MCF-7; [2]) [µM]	IC50 (PC-3; [9]) [µM]	IC50 (PC-3; [2])	SMILES
7.62	6.03 and 6.19	1.2	2.2 µM	1.3	2.6 µM	3.3	3.4 µM	1.9	1.2 µM	1.5	1.4 µM	0.97	1.7 µM					N[C@H]1CC[C@H](Nc2nc(NCC3CC3)c3ncn(C4CCCC4)c3n2)CC1 [Example 34, 2-[Trans-(4-aminocyclohexyl)amino]-6-[(cyclopropyl)methylamino]-9-cyclopentylpurine dihydrochloride]
6.72	5.51 and 6.00	3.1	3.5 µM	1.6	3.2 µM	4.2	3.6 µM	2.01	3.6 µM	2.3	2 µM	2	3.5 µM	1.7	3.3			N[C@H]1CC[C@H](Nc2nc(NCc3ccc(Cl)cc3F)c3ncn(C4CCCC4)c3n2)CC1 [Example 40, 2-[Trans-(4-aminocyclohexyl)amino]-6-[(4-chloro-2-fluorobenzyl)amino]-9-cyclopentylpurine dihydrochloride]
				2.2	2.7 µM	5.5	6.1 µM	1.7			1.3 µM			1	1.7	0.93	1.3 µM	N[C@H]1CC[C@H](Nc2nc(NCc3ccccc3)c3ncn(C4CCCC4)c3n2)CC1 [Example 47, 2-[Trans-(4-aminocyclohexyl)amino]-6-[benzylamino]-9-cyclopentylpurine dihydrochloride]
7.03	5.11 and 5.51	3.2	4.5 µM	4	4.8 µM	7.4	7.7 µM			3.7	2.4 µM	1.9	3.3 µM	1.9	3.3	2	2.3 µM	N[C@H]1CC[C@H](Nc2nc(NCc3ccc(F)cc3)c3ncn(C4CCCC4)c3n2)CC1 [Example 50, 2-[Trans-(4-aminocyclohexyl)amino]-6-[(4-fluorobenzyl)amino]-9-cyclopentylpurine dihydrochloride]
6.10	5.36 and 5.28	3	3.1 µM and 2 µM and 1.8 µM	2.8	2.7 µM and 2.4 µM	3.1	3.7 µM and 3.4 µM	2.2	2.3 µM and 2.1 µM	1.8	1.9 µM and 2 µM and 1.4 µM	3.2	3.4 µM and 2.8 µM and 2.5 µM			2	1.9 µM and 1.6 µM	N[C@H]1CC[C@H](Nc2nc(NCc3ccc(Cl)cc3Cl)c3ncn(C4CCCC4)c3n2)CC1 [Example 48, 2-[Trans-(4-aminocyclohexyl)amino]-6-[(2,4-dichlorobenzyl)amino]-9-cyclopentylpurine dihydrochloride]
